Test results taken from patent US20200331904A1, “3-AMINO-[1,2,4]-TRIAZOLE DERIVATIVES AND THEIR USE FOR CONTROLLING UNDESIRED PLANT GROWTH” (Bayer CropScience Aktiengesellschaft, priority 2017, published 2020).

Columns and labels:
Type in all cases: in vivo
Conditions in all cases: Table B1, application rate 320 g/ha, scored visually after about 3 weeks vs untreated controls
Veronica persica = assay: Pre-emergence herbicidal efficacy, VERPE
Source text: (§1) C.1 Pre-Emergence Herbicidal Action and Crop Plant Compatibility
(§2) Seeds of monocotyledonous and dicotyledonous weed plants and crop plants are placed in plastic or organic planting pots and covered with soil. The compounds of the invention, formulated in the form of wettable powders (WP) or as emulsion concentrates (EC), are then applied onto the surface of the covering soil as aqueous suspension or emulsion with addition of 0.5% additive at a water application rate of […] (converted). After the treatment, the pots are placed in a greenhouse and kept under good growth conditions for the trial plants. After about 3 weeks, the effect of the preparations is scored visually in comparison with untreated controls as percentages. For example, 100% activity=the plants have died, 0% activity=like control plants.
(§3) ABUTH: Abutilon theophrasti ALOMY: Alopecurus myosuroides AMARE: Amaranthus retroflexus AVEFA: Avena fatua CYPES: Cyperus esculentus ECHCG: Echinochloa crus-galli LOLMU: Lolium multiflorum MATIN: Matricaria inodora PHBPU: Ipomoea purpurea POLCO: Polygonum convolvulus SETVI: Setaria viridis STEME: Stellaria media VERPE: Veronica persica VTOTR: Viola tricolor

Setaria viridis = assay: Pre-emergence herbicidal efficacy, SETVI
Source text: as §1, §2, §3

Echinochloa crus-galli = assay: Pre-emergence herbicidal efficacy, ECHCG
Source text: as §1, §2, §3

Abutilon theophrasti = assay: Pre-emergence herbicidal efficacy, ABUTH
Source text: as §1, §2, §3

Amaranthus retroflexus = assay: Pre-emergence herbicidal efficacy, AMARE
Source text: as §1, §2, §3

Viola tricolor = assay: Pre-emergence herbicidal efficacy, VIOTR
In short: (§4)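 Seeds were sown in pots and covered with soil; WP or EC formulations were sprayed onto the soil surface as aqueous suspension or emulsion with 0.5% additive. Pots were kept in a greenhouse, and after about 3 weeks damage was rated visually as percent versus untreated controls (100% = plants dead, 0% = like control).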

Stellaria media = assay: Pre-emergence herbicidal efficacy, STEME
In short: as §4

Matricaria inodora = assay: Pre-emergence herbicidal efficacy, MATIN
In short: as §4

Lolium rigidum = assay: Pre-emergence herbicidal efficacy, LOLRI
Source text: C.1 Pre-Emergence Herbicidal Action and Crop Plant Compatibility Seeds of monocotyledonous and dicotyledonous weed plants and crop plants are placed in plastic or organic planting pots and covered with soil. The compounds of the invention, formulated in the form of wettable powders (WP) or as emulsion concentrates (EC), are then applied onto the surface of the covering soil as aqueous suspension or emulsion with addition of 0.5% additive at a water application rate of […] (converted). After the treatment, the pots are placed in a greenhouse and kept under good growth conditions for the trial plants. After about 3 weeks, the effect of the preparations is scored visually in comparison with untreated controls as percentages. For example, 100% activity=the plants have died, 0% activity=like control plants. […] Here, for example, compound Nos. I-214 and I-196, when applied pre-emergence, have very good activity (80% to 100% herbicidal activity) against harmful plants such as Abutilon theophrasti, Amaranthus retroflexus, Echinochloa crus-galli, Lolium rigidum, Matricaria inodora, Polygonum convolvulus, Setaria viridis, Stellaria media, Veronica persica and Viola tricolor at an application rate of 0.32 kg of active substance or less per hectare. At the same time, some of the compounds according to the invention leave Gramineae crops such as barley, wheat, rye, millet/sorghum, corn, rice or sugar cane virtually undamaged when applied pre-emergence, even at high active compound dosages. In addition, some substances are also harmless to dicotyledonous crops such as soya, cotton, oilseed rape or sugar beet.

Polygonum convolvulus = assay: Pre-emergence herbicidal efficacy, POLCO
Source text: as §1, §2, §3

SMILES | Herbicidal efficacy against VERPE (Veronica persica) | Herbicidal efficacy against SETVI (Setaria viridis) | Herbicidal efficacy against ECHCG (Echinochloa crus-galli) | Herbicidal efficacy against ABUTH (Abutilon theophrasti) | Herbicidal efficacy against AMARE (Amaranthus retroflexus) | Herbicidal efficacy against VIOTR (Viola tricolor) | Herbicidal efficacy against STEME (Stellaria media) | Herbicidal efficacy against MATIN (Matricaria inodora) | Herbicidal efficacy against LOLRI (Lolium rigidum) | Herbicidal efficacy against POLCO (Polygonum convolvulus)
Cc1ccc2c(c1)[C@H](Nc1nc3n(n1)CCN(S(=O)(=O)C(C)C)C3)CC2 [Example I-197] | 100% | 100% | 90% | 100% | 100% | 100% | 100% | 100% | 80% | 80%
Fc1ccc2c(c1)[C@H](Nc1nc3n(n1)CCCCS3)CCC2 [Example I-215] | 100% | 100% | 100% | 100% | 100% | 100% | 100% | 100% | 100% | 100%
Cc1ccc2c(c1)C(Nc1nc3n(n1)CCCS3(=O)=O)CC2 (centres unmarked) [Example I-238] | 100% | 100% | 80% | 100% | 100% | 100% | 100% | 100% | 90% | 100%
Cc1ccc2c(c1)C(Nc1nc3n(n1)CCCC[S+]3[O-])CCC2 (centres unmarked) [Example I-246] | 100% | 100% | 100% | 80% | 100% | 100% | 100% | 100% | 100% | 100%
Cc1ccc2c(c1)C(Nc1nc3n(n1)CCC(=O)N3CC1CC1)CCC2 (centres unmarked) [Example I-254] | 100% | 100% | 80% | 100% | 100% | 100% | 100% | 100% | 100% | 100%
Cc1ccc2c(c1)C(Nc1nc3n(n1)CCC(=O)N3CC1CCCCC1)CC2 (centres unmarked) [Example I-256] | 100% | 100% | 90% | 100% | 100% | 100% | 100% | 100% | 80% | 100%
Cc1ccc2c(c1)[C@H](Nc1nc3n(n1)CCCS3)[C@@H](C)C2 [Example I-348] | 100% | 100% | 100% | 100% | 100% | 100% | 100% | 100% | 80% | 100%
Cc1ccc2c(c1)[C@H](Nc1nc3n(n1)CCCCS3(=O)=O)CC2 [Example I-365] | 100% | 100% | 90% | 100% | 100% | 100% | 100% | 100% | 100% | 100%
